Structures can show the parent of a compound that is named as a salt.
How the values were obtained:
Type in all cases: physicochemical
[1] = Thermogravimetric Analysis (TGA) decomposition
From the text: The combined DSC/TGA results for (R)-2-(2-hydroxyphenylamino)-5,5-dimethyl-4,5-dihydrothiazole-4-carboxylic acid mono-hydrochloride is provided in FIG. 7. […] An amorphous form of Compound 1 can be made by, for example, lyophilizing crystalline Compound 1 as described in Example 4 herein.

[2] = Solubility in organic/aqueous solvents
[3] = Gravimetric Vapor Sorption (GVS)
From the text: The sample is hygroscopic.

TGA start of decomposition (total 5% mass loss) [1]: ~202 °C
solubility ([2]; 10% water/tetrahydrofuran): sparingly soluble
solubility ([2]; 10% water:iso-propyl acetate): sparingly soluble
solubility ([2]; acetone): less than sparingly soluble
solubility ([2]; ethanol): sparingly soluble
solubility ([2]; ethyl acetate): less than sparingly soluble
solubility ([2]; iso-propanol): sparingly soluble
solubility ([2]; iso-propyl acetate): less than sparingly soluble
solubility ([2]; methanol): freely soluble
solubility ([2]; n-heptane): less than sparingly soluble
solubility ([2]; tert-butyl alcohol): less than sparingly soluble
solubility ([2]; tert-butyl alcohol:water (1:1)): freely soluble
solubility ([2]; tert-butyl methyl ether): less than sparingly soluble
solubility ([2]; tetrahydrofuran): less than sparingly soluble
solubility ([2]; toluene): less than sparingly soluble
solubility ([2]; water): sparingly soluble
hygroscopicity ([3]; GVS): hygroscopic
GVS uptake ([3]; between 0% and 90% RH): 6%
Structure (SMILES): CC1(C)SC(Nc2ccccc2O)=N[C@@H]1C(=O)O [Compound 1, (R)-2-(2-hydroxyphenylamino)-5,5-dimethyl-4,5-dihydrothiazole-4-carboxylic acid mono-hydrochloride]

Source: patent publication US11161826B2, “Manufacturing methods and polymorphs of a thiazoline anti-hyperalgesic agent” (ACADIA PHARMACEUTICALS INC., priority 2019, dated 2021)
